Source: article PMC7392643, “Antibiotic fidaxomicin is an RdRp inhibitor as a potential new therapeutic agent against Zika virus” (BMC Medicine, 2020)

Tests used:
[1] = biological target: T1, ZIKV NS5 full-length protein (Zika virus, UniProt A0A024B7W1); experiment: SPR (BIAcore) binding to ZIKV NS5 full-length protein; details: qualitative
T1 construct: NS5 (amino acids 1 to 903); His tag (8x histidine) (N); made in house; host or cells: Escherichia coli (Rosetta)
Protocol: (§1) The cDNA fragment of ZIKV (ZG-01 strain) NS5 (amino acids 1 to 903), RdRp (amino acids 272 to 903), or DENV2 NS5 (amino acids 1 to 900) containing an N-terminal His tag sequence was cloned into a pET-30a-mutant vector. For protein expression, the plasmids were transformed into Rosetta™ competent cells (TIANGEN BIOTECH Co., Ltd., Beijing, China), respectively. […] Mass spectrometry was performed by Shanghai Applied Protein Technology Co. Ltd. (Shanghai, China). The concentration of a targeted protein was measured by SDS-PAGE using BSA (Sigma, St. Louis, MO) as a standard.
Surface plasmon resonance (SPR) experiments were performed in a BIAcore T100 device (BIAcore Inc., Uppsala, Sweden) using CM5 sensor chips (General Electric Company, GE) according to the protocol provided by the manufacturer. Briefly, recombinant ZIKV NS5 protein, RdRp protein, or DENV2 NS5 protein was immobilized on a CM5 chip, respectively. Different concentrations of fidaxomicin or ribavirin were injected at a flow rate of 30 μL/min for 3 min. Subsequently, data were collected for a 3-min association followed by a 20-min dissociation. The chip was regenerated by injecting 10 μL of 15 mM NaOH for 20 s. […] The binding kinetics was analyzed with the software BIAevaluation version 3.1 using a 1:1 Langmuir binding model. The Kd was calculated as previously described.

ZIKV RdRp protein = biological target: T2, ZIKV RdRp protein (Zika virus, UniProt A0A024B7W1); experiment: SPR (BIAcore) binding to ZIKV RdRp protein; details: qualitative
T2 construct: RdRp (amino acids 272 to 903); His tag (8x histidine) (N); made in house; host or cells: Escherichia coli (Rosetta)
Protocol: as §1
Surface plasmon resonance (SPR) experiments were performed in a BIAcore T100 device (BIAcore Inc., Uppsala, Sweden) using CM5 sensor chips (General Electric Company, GE) according to the protocol provided by the manufacturer. Briefly, recombinant ZIKV NS5 protein, RdRp protein, or DENV2 NS5 protein was immobilized on a CM5 chip, respectively. Different concentrations of fidaxomicin or ribavirin were injected at a flow rate of 30 μL/min for 3 min. Subsequently, data were collected for a 3-min association followed by a 20-min dissociation. The chip was regenerated by injecting 10 μL of 15 mM NaOH for 20 s. All procedures were run in 1% DMSO PBS-P20 (GE) as a running buffer. The binding kinetics was analyzed with the software BIAevaluation version 3.1 using a 1:1 Langmuir binding model. The Kd was calculated as previously described.

ZIKV ZG-01 strain = experiment: In vitro antiviral assay, plaque assay, ZIKV ZG-01; details: for EC50 / EC90: Zika virus
Protocol: The anti-ZIKV activity of fidaxomicin and ribavirin was evaluated in vitro by plaque assay. Various cell lines, including SNB19 (6 × 10^4/well, 10% FBS DMEM), A172 (7 × 10^4/well, 10% FBS DMEM), Vero (6 × 10^4/well 10% FBS DMEM), Huh7 (7 × 10^4/well, 10% FBS DMEM), HUVECs (7 × 10^4/well, 15% FBS M199 medium supplemented with 2 mM L-glutamine, 0.02 mg/mL endothelial cell growth supplement, and 0.05 mg/mL heparin), and A549 (6 × 10^4/well, 5% FBS DMEM), were plated in 12-well plates and allowed to attach overnight, followed by infection with ZIKV (ZG-01 strain or MR766 strain, respectively, at indicated MOI) in the presence of different concentrations of fidaxomicin, ribavirin, or vehicle control for 1 h, followed by two washes with 1 × PBS and incubated with fresh medium (without virus) consisting of corresponding concentrations of the compounds for further 48 h. The cell supernatants were collected to quantify ZIKV infection by plaque assay as previously described or by RT-qPCR. […] The anti-DENV activity of fidaxomicin was evaluated in vitro by RT-qPCR.

ZIKV MR766 strain = experiment: In vitro antiviral assay, plaque assay, ZIKV MR766; format: cell-based; details: Zika virus, 48 h
Protocol: Various cell lines, including SNB19 (6 × 10^4/well, 10% FBS DMEM), A172 (7 × 10^4/well, 10% FBS DMEM), Vero (6 × 10^4/well 10% FBS DMEM), Huh7 (7 × 10^4/well, 10% FBS DMEM), HUVECs (7 × 10^4/well, 15% FBS M199 medium supplemented with 2 mM L-glutamine, 0.02 mg/mL endothelial cell growth supplement, and 0.05 mg/mL heparin), and A549 (6 × 10^4/well, 5% FBS DMEM), were plated in 12-well plates and allowed to attach overnight, followed by infection with ZIKV (ZG-01 strain or MR766 strain, respectively, at indicated MOI) in the presence of different concentrations of fidaxomicin, ribavirin, or vehicle control for 1 h, followed by two washes with 1 × PBS and incubated with fresh medium (without virus) consisting of corresponding concentrations of the compounds for further 48 h. The cell supernatants were collected to quantify ZIKV infection by plaque assay as previously described [47] or by RT-qPCR.

in vitro = details: African green monkey
Protocol: Cell viability was detected by the 3-(4,5-dimethyl-2-thiazolyl)-2,5-diphenyl-2H-tetrazolium bromide (MTT) assay according to a previously described method [48]. Briefly, cells were seeded in 96-well plates at a density of 1 × 10^4 cells per well and cultured at 37 °C for 24 h, followed by exposure to the serially diluted fidaxomicin or ribavirin separately for 48 h. Cell survival rate was determined by MTT reduction assay according to the manufacturer’s protocol (Invitrogen). The 50% cytotoxic concentration (CC50) was defined as the compound concentration required to inhibit the cell growth by 50% compared with the control assay. The assay was performed in triplicates in three independent experiments.

T2 sequence (A0A024B7W1 2792-3423): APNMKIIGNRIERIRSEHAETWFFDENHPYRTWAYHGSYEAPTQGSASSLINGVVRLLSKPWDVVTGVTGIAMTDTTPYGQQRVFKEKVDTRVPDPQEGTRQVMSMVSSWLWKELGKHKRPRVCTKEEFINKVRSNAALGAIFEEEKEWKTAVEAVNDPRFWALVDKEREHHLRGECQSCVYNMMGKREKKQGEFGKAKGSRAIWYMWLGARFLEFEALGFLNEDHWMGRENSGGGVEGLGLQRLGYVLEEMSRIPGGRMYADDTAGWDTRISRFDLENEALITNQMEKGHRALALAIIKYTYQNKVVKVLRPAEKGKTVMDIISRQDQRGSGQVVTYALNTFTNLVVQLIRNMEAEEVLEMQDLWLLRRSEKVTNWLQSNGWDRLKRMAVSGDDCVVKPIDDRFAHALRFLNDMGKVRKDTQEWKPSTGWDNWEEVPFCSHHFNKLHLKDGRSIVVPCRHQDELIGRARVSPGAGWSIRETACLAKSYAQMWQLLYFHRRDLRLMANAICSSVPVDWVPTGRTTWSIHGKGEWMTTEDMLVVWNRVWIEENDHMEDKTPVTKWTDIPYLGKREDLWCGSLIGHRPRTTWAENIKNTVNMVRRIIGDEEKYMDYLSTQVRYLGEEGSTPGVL
T1 sequence (A0A024B7W1 2521-3423): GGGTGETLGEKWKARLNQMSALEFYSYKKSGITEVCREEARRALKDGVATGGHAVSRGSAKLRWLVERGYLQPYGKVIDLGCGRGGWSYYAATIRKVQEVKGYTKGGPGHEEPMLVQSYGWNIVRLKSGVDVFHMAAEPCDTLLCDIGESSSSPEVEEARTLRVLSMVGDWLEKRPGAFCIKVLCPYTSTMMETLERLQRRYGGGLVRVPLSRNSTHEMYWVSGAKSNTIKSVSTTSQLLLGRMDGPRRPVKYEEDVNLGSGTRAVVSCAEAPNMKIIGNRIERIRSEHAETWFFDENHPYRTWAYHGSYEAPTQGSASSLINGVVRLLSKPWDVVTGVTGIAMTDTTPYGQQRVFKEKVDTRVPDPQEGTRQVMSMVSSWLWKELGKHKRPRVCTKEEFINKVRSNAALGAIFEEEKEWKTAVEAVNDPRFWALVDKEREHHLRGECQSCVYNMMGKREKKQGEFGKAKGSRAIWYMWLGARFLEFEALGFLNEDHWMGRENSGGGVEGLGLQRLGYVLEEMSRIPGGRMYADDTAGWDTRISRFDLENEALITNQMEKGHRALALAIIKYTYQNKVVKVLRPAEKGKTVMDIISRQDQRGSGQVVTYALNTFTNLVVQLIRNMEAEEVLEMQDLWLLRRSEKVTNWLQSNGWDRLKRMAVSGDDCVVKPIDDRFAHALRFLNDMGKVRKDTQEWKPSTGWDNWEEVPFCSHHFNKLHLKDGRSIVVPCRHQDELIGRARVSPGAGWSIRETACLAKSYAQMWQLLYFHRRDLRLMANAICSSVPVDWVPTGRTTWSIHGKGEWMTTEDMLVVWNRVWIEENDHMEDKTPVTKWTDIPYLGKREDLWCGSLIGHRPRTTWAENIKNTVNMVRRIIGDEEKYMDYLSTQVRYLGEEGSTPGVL

- binding to ZIKV NS5 protein (SPR) [1]: very weak interaction
- binding to ZIKV RdRp protein (SPR) (ZIKV RdRp protein): weak
- EC50 (ZIKV ZG-01 strain; A549, 48 h): 33.2 ± 3.4 µM
- EC90 (ZIKV ZG-01 strain; A549, 48 h): 71.6 ± 6.2 µM
- EC50 (ZIKV ZG-01 strain; Huh-7, 48 h): 12.7 ± 2.3 µM
- EC90 (ZIKV ZG-01 strain; Huh-7, 48 h): 54.3 ± 3.5 µM
- EC50 (ZIKV ZG-01 strain; SNB-19, 48 h): > 100 µM
- EC90 (ZIKV ZG-01 strain; SNB-19, 48 h): > 100 µM
- EC50 (ZIKV ZG-01 strain; Vero, 48 h): > 100 µM
- EC90 (ZIKV ZG-01 strain; Vero, 48 h): > 100 µM
- EC50 (ZIKV MR766 strain; A549 cells): 35.2 ± 5.2 µM
- EC90 (ZIKV MR766 strain; A549 cells): 74.6 ± 8.5 µM
- EC50 (ZIKV MR766 strain; Huh-7, Huh7 cells): 15.6 ± 2.1 µM
- EC90 (ZIKV MR766 strain; Huh-7, Huh7 cells): 58.3 ± 3.2 µM
- EC50 (ZIKV MR766 strain; SNB-19, SNB19 cells): > 100 µM
- EC90 (ZIKV MR766 strain; SNB-19, SNB19 cells): > 100 µM
- EC50 (ZIKV MR766 strain; Vero cells): > 100 µM
- EC90 (ZIKV MR766 strain; Vero cells): > 100 µM
SMILES: NC(=O)c1ncn([C@@H]2O[C@H](CO)[C@@H](O)[C@H]2O)n1 [Ribavirin, ribavirin]
- efficacy against ZIKV infection under non-cytotoxic concentration (ZIKV ZG-01 strain; SNB19 cells): far less effective
- CC50 at 48 h (in vitro): 486 ± 20.1 µM
